What all share (assay type): biochemical
Assay [1] concerns the target T1, recombinant human VAP-1 (Homo sapiens, UniProt Q16853).
T1 construct: purchased R&D systems
T1 sequence (Q16853 1-763): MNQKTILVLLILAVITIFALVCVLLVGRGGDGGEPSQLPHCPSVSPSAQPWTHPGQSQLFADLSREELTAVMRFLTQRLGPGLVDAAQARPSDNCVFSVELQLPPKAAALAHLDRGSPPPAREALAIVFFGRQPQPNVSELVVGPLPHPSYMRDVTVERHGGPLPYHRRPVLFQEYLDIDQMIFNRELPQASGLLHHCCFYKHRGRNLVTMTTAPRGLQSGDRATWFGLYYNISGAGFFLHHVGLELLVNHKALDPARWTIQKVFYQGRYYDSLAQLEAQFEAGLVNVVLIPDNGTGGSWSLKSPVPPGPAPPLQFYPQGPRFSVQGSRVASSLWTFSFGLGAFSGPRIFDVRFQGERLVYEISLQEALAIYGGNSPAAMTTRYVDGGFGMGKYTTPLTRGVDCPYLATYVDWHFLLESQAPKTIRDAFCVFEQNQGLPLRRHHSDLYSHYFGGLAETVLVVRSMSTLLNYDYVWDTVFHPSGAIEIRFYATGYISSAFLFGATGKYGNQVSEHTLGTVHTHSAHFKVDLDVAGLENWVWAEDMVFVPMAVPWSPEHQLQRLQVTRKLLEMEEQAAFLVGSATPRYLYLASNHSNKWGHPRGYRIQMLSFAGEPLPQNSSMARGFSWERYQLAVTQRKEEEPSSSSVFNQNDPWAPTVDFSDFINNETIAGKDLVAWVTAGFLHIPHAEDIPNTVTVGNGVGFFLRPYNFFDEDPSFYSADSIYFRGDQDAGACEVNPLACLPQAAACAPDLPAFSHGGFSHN
Briefly: Activity on recombinant human VAP-1, HRP-coupled Amplex Red hydrogen peroxide assay, benzylamine substrate. Particulars: 30 min incubation at 37° C., 1 mM benzylamine, read-out: Inhibitory Activity (IC50, nM) human VAP-1. The protocol: (§1) The compounds according to the present technology were evaluated in terms of activity on recombinant human VAP-1 (R&D systems) by measuring the level of hydrogen peroxide in horseradish peroxidase (HRP)-coupled reaction using Amplex Red Hydrogen Peroxide Assay Kit (Molecular Probes, Invitrogen, USA). The experiment was carried out at room temperature using benzylamine as a substrate. In the HRP-coupled reaction, hydrogen peroxide oxidation of 10-acetyl-3,7-dihydroxyphenoxazine (Amplex Red reagent) produces resorufin, which is a highly fluorescent compound. Briefly, the test compound was dissolved in dimethyl sulfoxide (DMSO) at a concentration of 20 mM. The dose-response assessment was made by 1:3 serial dilution in DMSO, thereby creating a 8 point curve. The concentration of the upper part was controlled according to the efficacy of the compounds, followed by dilution with a reaction buffer solution to obtain a final DMSO concentration of less than 1%. To each well of a 96 black well plate, human VAP-1 purified in 50 mM sodium phosphate buffer solution (pH7.4) was added. The test compounds dissolved in DMSO were incubated with the human VAP-1 enzymes at 37° C. for 30 minutes. After 30-minute incubation, each well was added with a reaction mixture containing 200 uM Amplex Red reagent prepared from 50 mM sodium phosphate buffer solution (pH 7.4), 1 mM benzylamine, and 1 U/mL HRP. Fluorescence intensity was measured at several time points during 1-2 hours using a microplate reader (Flexstation3, Molecular Devices) under the wavelength condition exciting at 544 nm and reading the emission at 590 nm. The inhibitory effect of the compounds was measured as a decrease (%) in the signal rate as compared to the control group without any inhibitor (only diluted DMSO). Data was fixed to a logistic model with four variables and IC50 value was calculated using GraphPad Prism program.

The target in assay [2] is T2, recombinant human MAO-A (monoamine oxidase-A) (Homo sapiens, UniProt P21397).
T2 construct: purchased Sigma-Aldrich
T2 sequence (P21397 1-527): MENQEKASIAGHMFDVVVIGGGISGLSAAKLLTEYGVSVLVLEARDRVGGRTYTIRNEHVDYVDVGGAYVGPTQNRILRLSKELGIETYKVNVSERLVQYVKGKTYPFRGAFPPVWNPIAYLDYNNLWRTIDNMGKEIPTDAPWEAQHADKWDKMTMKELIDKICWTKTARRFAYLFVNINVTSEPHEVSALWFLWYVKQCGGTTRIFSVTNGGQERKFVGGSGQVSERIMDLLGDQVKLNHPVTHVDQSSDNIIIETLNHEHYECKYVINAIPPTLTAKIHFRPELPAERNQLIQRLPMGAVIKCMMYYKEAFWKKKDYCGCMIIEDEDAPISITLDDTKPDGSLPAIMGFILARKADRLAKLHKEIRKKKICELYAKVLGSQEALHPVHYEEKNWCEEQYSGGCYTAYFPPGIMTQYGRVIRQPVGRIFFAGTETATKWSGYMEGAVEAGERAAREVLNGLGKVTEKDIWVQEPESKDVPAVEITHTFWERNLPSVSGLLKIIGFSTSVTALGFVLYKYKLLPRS
Briefly: Activity on recombinant human MAO-A, method similar to VAP-1 assay, 0.5 mM tyramine substrate. The conditions noted are these: read-out: Inhibitory Activity (IC50, nM) MAO-A. As for the experimental part:
as §1
(§2) In addition, the compounds according to the present technology were evaluated in terms of activity on a recombinant human MAO-A (monoamine oxidase-A, Sigma-Aldrich) and a recombinant human MAO-B(monoamine oxidase-B, Sigma-Aldrich) by using as substrates, 0.5 mM tyramine and 1 mM benzylamine, respectively, with a method similar to the activity evaluation method for recombinant human VAP-1. The compounds according to the present technology were also evaluated in terms of activity on a recombinant human DAO (diamine oxidase, R&D systems) by using as a substrate 1 mM putrescine with a method similar to the activity evaluation method for recombinant human VAP-1.

Assay [3] concerns the target T3, recombinant human MAO-B (monoamine oxidase-B) (Homo sapiens, UniProt P27338).
T3 construct: purchased Sigma-Aldrich
T3 sequence (P27338 1-520): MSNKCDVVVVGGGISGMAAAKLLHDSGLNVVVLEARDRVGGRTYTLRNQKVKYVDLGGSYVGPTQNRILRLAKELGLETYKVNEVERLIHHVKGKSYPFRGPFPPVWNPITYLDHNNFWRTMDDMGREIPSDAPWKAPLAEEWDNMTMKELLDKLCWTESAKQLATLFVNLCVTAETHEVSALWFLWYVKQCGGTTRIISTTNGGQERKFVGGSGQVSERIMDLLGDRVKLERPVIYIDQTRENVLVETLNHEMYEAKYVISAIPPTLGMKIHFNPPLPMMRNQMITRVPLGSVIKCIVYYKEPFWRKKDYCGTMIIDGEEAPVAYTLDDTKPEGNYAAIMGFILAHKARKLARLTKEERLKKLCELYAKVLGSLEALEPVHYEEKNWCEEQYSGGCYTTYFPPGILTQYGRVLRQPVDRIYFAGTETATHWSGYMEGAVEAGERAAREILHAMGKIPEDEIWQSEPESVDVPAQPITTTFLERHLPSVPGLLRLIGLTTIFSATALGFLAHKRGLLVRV
Nature of the assay: Activity on recombinant human MAO-B, method similar to VAP-1 assay, 1 mM benzylamine substrate. Particulars: read-out: Inhibitory Activity (IC50, nM) MAO-B. The protocol:
as §1, §2

Assay [4] has as its target T4, recombinant human DAO (diamine oxidase) (Homo sapiens, UniProt P19801).
T4 construct: purchased R&D systems
T4 sequence (P19801 20-751): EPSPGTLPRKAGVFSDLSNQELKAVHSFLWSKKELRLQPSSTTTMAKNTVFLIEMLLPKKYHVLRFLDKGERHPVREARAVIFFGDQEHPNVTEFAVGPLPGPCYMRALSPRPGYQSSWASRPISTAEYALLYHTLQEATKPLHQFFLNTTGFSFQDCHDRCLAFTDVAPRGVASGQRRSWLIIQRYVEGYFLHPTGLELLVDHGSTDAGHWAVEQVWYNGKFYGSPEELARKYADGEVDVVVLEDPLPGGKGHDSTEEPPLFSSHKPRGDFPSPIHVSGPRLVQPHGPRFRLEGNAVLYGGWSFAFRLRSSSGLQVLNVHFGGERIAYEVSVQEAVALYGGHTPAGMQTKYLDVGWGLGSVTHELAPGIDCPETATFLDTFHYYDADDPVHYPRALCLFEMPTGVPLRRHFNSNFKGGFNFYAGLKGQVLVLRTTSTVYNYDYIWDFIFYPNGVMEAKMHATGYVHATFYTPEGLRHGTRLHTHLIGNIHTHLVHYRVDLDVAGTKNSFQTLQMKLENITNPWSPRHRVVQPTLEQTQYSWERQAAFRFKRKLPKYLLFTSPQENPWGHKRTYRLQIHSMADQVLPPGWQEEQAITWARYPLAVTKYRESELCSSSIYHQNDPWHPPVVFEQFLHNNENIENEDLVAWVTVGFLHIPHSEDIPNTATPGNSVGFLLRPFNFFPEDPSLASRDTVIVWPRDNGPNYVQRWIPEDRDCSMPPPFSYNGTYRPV
Nature of the assay: Activity on recombinant human DAO, method similar to VAP-1 assay, 1 mM putrescine substrate. The conditions noted are these: read-out: Inhibitory Activity (IC50, nM) DAO. The protocol: as §1, §2

Counter-ions that a name gives are not always drawn. Some results are limits rather than exact numbers.

What is called IC50 is the point on the concentration scale where inhibition reaches its midpoint. Regarding `CN1C(=O)CCc2cc(-c3ccn4c(=O)n(CC(CN)=C(F)F)nc4c3)ccc21` [Example 54, 6-[2-[2-(aminomethyl)-3,3-difluoro-allyl]-3-oxo-[1,2,4]triazolo[4,3-a]pyridin-7-yl]-1-methyl-3,4-dihydroquinolin-2-one trifluoroacetate], the IC50 in assay [1] is 0.1 nM; in assay [2] it was more than 100000 nM; in assay [3] it was 170 nM; in assay [4], 22 nM.

Consider `NCC(Cn1nc2ccc(Br)cn2c1=O)=C(F)F` [Example 46, 2-[2-(aminomethyl)-3,3-difluoro-allyl]-6-bromo-[1,2,4]triazolo[4,3-a]pyridin-3-one trifluoroacetate], for which the IC50 is 36 nM in assay [1], more than 100000 nM in assay [2], more than 100000 nM in assay [3] and 26000 nM in assay [4].

As for `COc1ccc(-c2ccn3c(=O)n(C/C(=C/F)CN)nc3c2)cn1` [Example 31, 2-[(2E)-2-(aminomethyl)-3-fluoroprop-2-en-1-yl]-7-(6-methoxypyridin-3-yl)[1,2,4]triazolo[4,3-a]pyridin-3(2H)-one hydrochloride], the IC50 in assay [1] is 0.3 nM; in assay [2] it was more than 100000 nM; in assay [3] it was 61 nM; in assay [4], 5 nM.

As for `NC/C(=C\F)Cn1nc2cccc(-c3ccc4nonc4c3)n2c1=O` [Example 21, 2-[(2E)-2-(aminomethyl)-3-fluoroprop-2-en-1-yl]-5-(2,1,3-benzoxadiazol-5-yl)[1,2,4]triazolo[4,3-a]pyridin-3(2H)-one trifluoroacetate], the IC50 in assay [1] stood at 150 nM.

Turning to `NC/C(=C\F)Cn1nc2cccc(-c3ccc4c(c3)OCO4)n2c1=O` [Example 20, 2-[(2E)-2-(aminomethyl)-3-fluoroprop-2-en-1-yl]-5-(1,3-benzodioxol-5-yl)[1,2,4]triazolo[4,3-a]pyridin-3(2H)-one trifluoroacetate], in assay [1], the IC50 was more than 100 nM.

`NC/C(=C\F)Cn1nc2cccc(-c3ccc(-c4ccon4)cc3)n2c1=O` [Example 19, 2-[(2E)-2-(aminomethyl)-3-fluoroprop-2-en-1-yl]-5-[4-(1,2-oxazol-3-yl)phenyl][1,2,4]triazolo[4,3-a]pyridin-3(2H)-one trifluoroacetate]: the IC50 in assay [1] stood at 38 nM.

For `NC/C(=C\F)Cn1nc2ccc(Br)cn2c1=O` [Example 1, 2-[(2E)-2-(aminomethyl)-3-fluoroprop-2-en-1-yl]-6-bromo[1,2,4]triazolo[4,3-a]pyridin-3(2H)-one hydrochloride], the IC50 in assay [1] amounted to 87 nM; in assay [4] it was 100 nM.

`NC/C(=C\F)Cn1nc2ccc(-c3ccc(N4CCOCC4)nc3)cn2c1=O` [Example 11, 2-[(2E)-2-(aminomethyl)-3-fluoroprop-2-en-1-yl]-6-[6-(morpholin-4-yl)pyridin-3-yl][1,2,4]triazolo[4,3-a]pyridin-3(2H)-one hydrochloride]: the values for the IC50 in assay [1], in assay [3] and in assay [4] were 3.7 nM, 39 nM and 0.2 nM, respectively.

Regarding `CC(=O)Nc1cc(-c2ccc3nn(C/C(=C/F)CN)c(=O)n3c2)ccn1` [Example 8, N-[4-[2-[(2E)-2-(aminomethyl)-3-fluoroprop-2-en-1-yl]-3-oxo-2,3-dihydro[1,2,4]triazolo[4,3-a]pyridin-6-yl]pyridin-2-yl]acetamide trifluoroacetate], the results for the IC50 in assay [1] and in assay [4] were 14 nM and less than 100 nM, respectively.

For the compound `CC(=O)Nc1ccc(-c2cccc3nn(C/C(=C/F)CN)c(=O)n23)cc1` [Example 18, N-[4-[2-[(2E)-2-(aminomethyl)-3-fluoroprop-2-en-1-yl]-3-oxo-2,3-dihydro[1,2,4]triazolo[4,3-a]pyridin-5-yl]phenyl]acetamide trifluoroacetate], the IC50 in assay [1] came to 90 nM.

Regarding `NC/C(=C\F)Cn1nc2cc(-c3ccc(N4CCOCC4)nc3)ccn2c1=O` [Example 33, 2-[(2E)-2-(aminomethyl)-3-fluoroprop-2-en-1-yl]-7-[6-(morpholin-4-yl)pyridin-3-yl][1,2,4]triazolo[4,3-a]pyridin-3(2H)-one hydrochloride], the IC50 in assay [1] is 0.4 nM; in assay [3], 130 nM; in assay [4], 5.8 nM.

The record behind these values is US11091479B2, “Triazolopyridin-3-ones or their salts and pharmaceutical compositions comprising the same” (YUHAN CORPORATION, priority 2018, dated 2021).
